Assay results: US4202988A, “Prostenoic acids and esters” (American Cyanamid Company, priority 1977, dated 1980)

What was measured:
[1] = system: adenosine diphosphate induced platelet aggregation (human protein rich plasma); assay: Inhibition of Platelet Aggregation - In Vitro, adenosine diphosphate induced; assay type: cell-based; parameters: key: (-): Inhibition; (+): No inhibition
Source text: (§1) It is well known that platelet aggregation inhibitors may be useful as anti-thrombotic drugs. Inhibition of platelet aggregation can be conveniently measured in vitro by monitoring changes in optical density and/or light transmission in platelet rich plasma upon addition of suitable aggregating agents such as adenosine diphosphate, epinephrine, thrombin or collagen. Alternatively, platelet aggregation can be measured in vitro using platelet rich plasma obtained at various time intervals from animals given inhibitors by an oral or parenteral route.
(§2) Human […] is incubated with modified Tyrode's solution in a proportion of 40-50% human […]. The test compounds are added at varying concentrations and after 5 minutes incubation, an aggregating agent such as adenosine diphosphate or collagen is added. The change in optical density (light transmission) is monitored by eye and inhibition is recorded as a (-) or lack of inhibition is recorded as a (+). Test compounds are considered active if they inhibit adenosine diphosphate or collagen induced aggregation at a concentration of 25 mcg/ml or less within 5-10 minutes.

[2] = system: collagen induced platelet aggregation (human protein rich plasma); assay: Inhibition of Platelet Aggregation - In Vitro, collagen induced; assay type: cell-based; parameters: key: (-): Inhibition; (+): No inhibition
Source text: as §1, §2

[3] = system: bronchospasms elicited by 5-hydroxytryptamine; assay: Bronchodilator activity against 5-hydroxytryptamine bronchospasm (Konzett procedure); assay type: in vivo, guinea pigs; conditions: Cavia porcellus; guinea pig, three logarithmic cumulative intravenous doses
Procedure: (§3) Bronchodilator activity is determined in guinea pigs against bronchospasms elicited by intravenous injections of 5-hydroxytryptamine, histamine or acetylcholine by the Konzett procedure. [See J. Lulling, P. Lievens, F. El Sayed and J. Prignot, Arzeneimittel-Forschung, 18, 995 (1968).] In Table B bronchodilator activity for representative compounds of this invention against one or more of the three spasmogenic agents is expressed as an ED50 determined from the results obtained with three logarithmic cumulative intravenous doses.

[4] = system: bronchospasms elicited by histamine; assay: Bronchodilator activity against histamine bronchospasm (Konzett procedure); assay type: in vivo, guinea pigs; conditions: Cavia porcellus; guinea pig, three logarithmic cumulative intravenous doses
Procedure: as §3

[5] = system: bronchospasms elicited by acetylcholine; assay: Bronchodilator activity against acetylcholine bronchospasm (Konzett procedure); assay type: in vivo, guinea pigs; conditions: Cavia porcellus; guinea pig, three logarithmic cumulative intravenous doses
Procedure: as §3

SMILES | Inhibition of platelet aggregation, adenosine diphosphate ([1]; drug concentration 2.5 μg/ml) | Inhibition of platelet aggregation, adenosine diphosphate ([1]; drug concentration 25 μg/ml) | Inhibition of platelet aggregation, adenosine diphosphate ([1]; drug concentration 250 μg/ml) | Inhibition of platelet aggregation, collagen ([2]; drug concentration 25 μg/ml) | Inhibition of platelet aggregation, collagen ([2]; drug concentration 250 μg/ml) | ED50 [3] | ED50 [4] | ED50 [5]
N#CC1CC(=O)C(CC=CCCCC(=O)O)C1C=CC1(O)CCCCC1 (stereo not drawn) [nat(and ent)-11α/βCyano-15-hydroxy-9-ozxo-15, 16-tetramethylene-17,18,19,20-tetranor-5-cis-13-trans-prostadienoic Acid] | (-) | (-) | (-) | (-) | (-) | 1.81 µg/kg | 0.367 µg/kg | 2.74 µg/kg
O=C(O)CCC/C=C\C[C@@H]1C(=O)C=C[C@H]1/C=C/C1(O)CCCCC1 (relative stereo) [nat-(and ent)-15-hydroxy-9-oxo-15,16-tetramethylene-17,18,19,20-tetranor-5-cis-10,13-trans-prostatrienoic Acid] |  | (+) | (-) | (+) | (-) | > 3.2 µg/kg | 0.632 µg/kg | > 3.2 µg/kg
